CC1=NN(c2ccc(C)cc2)C(=O)C1
Conditions | solubility (mole fraction)
in 1,4-dioxane, 283.15 K | 0.0337
in 1,4-dioxane, 285.65 K | 0.0367
in 1,4-dioxane, 288.15 K | 0.0399
in 1,4-dioxane, 290.65 K | 0.0432
in 1,4-dioxane, 293.15 K | 0.047
in 1,4-dioxane, 295.65 K | 0.0507
in 1,4-dioxane, 298.15 K | 0.0549
in 1,4-dioxane, 300.65 K | 0.0591
in 1,4-dioxane, 303.15 K | 0.0638
in 1,4-dioxane, 305.65 K | 0.0683
in 1,4-dioxane, 308.15 K | 0.0737
in 1,4-dioxane, 310.65 K | 0.0791
in 1,4-dioxane, 313.15 K | 0.0849
in acetonitrile, 278.15 K | 0.00534
in acetonitrile, 280.65 K | 0.00596
in acetonitrile, 283.15 K | 0.00668
in acetonitrile, 285.65 K | 0.00746
in acetonitrile, 288.15 K | 0.0083
in acetonitrile, 290.65 K | 0.00927
in acetonitrile, 293.15 K | 0.0104
in acetonitrile, 295.65 K | 0.0115
in acetonitrile, 298.15 K | 0.0128
in acetonitrile, 300.65 K | 0.0142
in acetonitrile, 303.15 K | 0.0157
in acetonitrile, 305.65 K | 0.0173
in acetonitrile, 308.15 K | 0.0192
in acetonitrile, 310.65 K | 0.0213
in acetonitrile, 313.15 K | 0.0235
in cyclohexane, 283.15 K | 0.000488
in cyclohexane, 285.65 K | 0.000558
in cyclohexane, 288.15 K | 0.000626
in cyclohexane, 290.65 K | 0.000714
in cyclohexane, 293.15 K | 0.000802
in cyclohexane, 295.65 K | 0.000902
in cyclohexane, 298.15 K | 0.00102
in cyclohexane, 300.65 K | 0.00114
in cyclohexane, 303.15 K | 0.00128
in cyclohexane, 305.65 K | 0.00142
in cyclohexane, 308.15 K | 0.00161
in cyclohexane, 310.65 K | 0.00179
in cyclohexane, 313.15 K | 0.002
in ethanol, 278.15 K | 0.0146
in ethanol, 280.65 K | 0.0161
in ethanol, 283.15 K | 0.0176
in ethanol, 285.65 K | 0.0191
in ethanol, 288.15 K | 0.0209
in ethanol, 290.65 K | 0.0229
in ethanol, 293.15 K | 0.0248
in ethanol, 295.65 K | 0.027
in ethanol, 298.15 K | 0.0294
in ethanol, 300.65 K | 0.0319
in ethanol, 303.15 K | 0.0345
in ethanol, 305.65 K | 0.0372
in ethanol, 308.15 K | 0.0403
in ethanol, 310.65 K | 0.0436
in ethanol, 313.15 K | 0.0471
in ethyl acetate, 278.15 K | 0.0171
in ethyl acetate, 280.65 K | 0.0188
in ethyl acetate, 283.15 K | 0.0207
in ethyl acetate, 285.65 K | 0.0226
in ethyl acetate, 288.15 K | 0.0247
in ethyl acetate, 290.65 K | 0.0271
in ethyl acetate, 293.15 K | 0.0294
in ethyl acetate, 295.65 K | 0.032
in ethyl acetate, 298.15 K | 0.0349
in ethyl acetate, 300.65 K | 0.0378
in ethyl acetate, 303.15 K | 0.041
in ethyl acetate, 305.65 K | 0.0444
in ethyl acetate, 308.15 K | 0.0481
in ethyl acetate, 310.65 K | 0.052
in ethyl acetate, 313.15 K | 0.0562
in ethylbenzene, 278.15 K | 0.0109
in ethylbenzene, 280.65 K | 0.012
in ethylbenzene, 283.15 K | 0.0132
in ethylbenzene, 285.65 K | 0.0146
in ethylbenzene, 288.15 K | 0.016
in ethylbenzene, 290.65 K | 0.0175
in ethylbenzene, 293.15 K | 0.0193
in ethylbenzene, 295.65 K | 0.0211
in ethylbenzene, 298.15 K | 0.0231
in ethylbenzene, 300.65 K | 0.0253
in ethylbenzene, 303.15 K | 0.0276
in ethylbenzene, 305.65 K | 0.0301
in ethylbenzene, 308.15 K | 0.0327
in ethylbenzene, 310.65 K | 0.0356
in ethylbenzene, 313.15 K | 0.0387
in isopentanol, 278.15 K | 0.0303
in isopentanol, 280.65 K | 0.0335
in isopentanol, 283.15 K | 0.037
in isopentanol, 285.65 K | 0.041
in isopentanol, 288.15 K | 0.0449
in isopentanol, 290.65 K | 0.0492
in isopentanol, 293.15 K | 0.0542
in isopentanol, 295.65 K | 0.0593
in isopentanol, 298.15 K | 0.0646
in isopentanol, 300.65 K | 0.0705
in isopentanol, 303.15 K | 0.0769
in isopentanol, 305.65 K | 0.0835
in isopentanol, 308.15 K | 0.0906
in isopentanol, 310.65 K | 0.0982
in isopentanol, 313.15 K | 0.106
in isopropanol, 278.15 K | 0.0116
in isopropanol, 280.65 K | 0.0127
in isopropanol, 283.15 K | 0.014
in isopropanol, 285.65 K | 0.0153
in isopropanol, 288.15 K | 0.0168
in isopropanol, 290.65 K | 0.0184
in isopropanol, 293.15 K | 0.02
in isopropanol, 295.65 K | 0.0218
in isopropanol, 298.15 K | 0.0238
in isopropanol, 300.65 K | 0.0259
in isopropanol, 303.15 K | 0.0281
in isopropanol, 305.65 K | 0.0305
in isopropanol, 308.15 K | 0.033
in isopropanol, 310.65 K | 0.0358
in isopropanol, 313.15 K | 0.0387
in methanol, 278.15 K | 0.0152
in methanol, 280.65 K | 0.0168
in methanol, 283.15 K | 0.0183
in methanol, 285.65 K | 0.02
in methanol, 288.15 K | 0.0221
in methanol, 290.65 K | 0.024
in methanol, 293.15 K | 0.0262
in methanol, 295.65 K | 0.0287
in methanol, 298.15 K | 0.0312
in methanol, 300.65 K | 0.034
in methanol, 303.15 K | 0.0367
in methanol, 305.65 K | 0.0398
in methanol, 308.15 K | 0.0432
in methanol, 310.65 K | 0.0468
in methanol, 313.15 K | 0.0506
in n-butanol, 278.15 K | 0.0188
in n-butanol, 280.65 K | 0.0206
in n-butanol, 283.15 K | 0.0226
in n-butanol, 285.65 K | 0.0247
in n-butanol, 288.15 K | 0.0271
in n-butanol, 290.65 K | 0.0294
in n-butanol, 293.15 K | 0.032
in n-butanol, 295.65 K | 0.0349
in n-butanol, 298.15 K | 0.0377
in n-butanol, 300.65 K | 0.041
in n-butanol, 303.15 K | 0.0444
in n-butanol, 308.15 K | 0.0518
in n-butanol, 310.65 K | 0.056
in n-butanol, 313.15 K | 0.0603
in n-propanol, 278.15 K | 0.0177
in n-propanol, 280.65 K | 0.0194
in n-propanol, 283.15 K | 0.0213
in n-propanol, 285.65 K | 0.0232
in n-propanol, 288.15 K | 0.0254
in n-propanol, 290.65 K | 0.0276
in n-propanol, 293.15 K | 0.0301
in n-propanol, 295.65 K | 0.0326
in n-propanol, 298.15 K | 0.0353
in n-propanol, 300.65 K | 0.0384
in n-propanol, 303.15 K | 0.0414
in n-propanol, 305.65 K | 0.0448
in n-propanol, 308.15 K | 0.0483
in n-propanol, 310.65 K | 0.0522
in n-propanol, 313.15 K | 0.0561
in toluene, 278.15 K | 0.00985
in toluene, 280.65 K | 0.0109
in toluene, 283.15 K | 0.012
in toluene, 285.65 K | 0.0133
in toluene, 288.15 K | 0.0147
in toluene, 290.65 K | 0.0161
in toluene, 293.15 K | 0.0176
in toluene, 295.65 K | 0.0193
in toluene, 298.15 K | 0.021
in toluene, 300.65 K | 0.023
in toluene, 303.15 K | 0.025
in toluene, 305.65 K | 0.0273
in toluene, 308.15 K | 0.0298
in toluene, 310.65 K | 0.0323
in toluene, 313.15 K | 0.0351
